Biological target: T1, DndA (Streptomyces lividans, UniProt A7TUX7, C344S)
T1 construct: full length residues 1-380, N-terminal His-tag (pET28a), expressed in E. coli BL21(DE3); homodimer; residues 2-359 in the model
Assay: X-ray crystallography, […] Å
Type: binding
Conditions: covalent; Schiff base with Lys200; crystals at pH 5.5 without L-cysteine

T1 sequence (A7TUX7 entry or part of it C344S): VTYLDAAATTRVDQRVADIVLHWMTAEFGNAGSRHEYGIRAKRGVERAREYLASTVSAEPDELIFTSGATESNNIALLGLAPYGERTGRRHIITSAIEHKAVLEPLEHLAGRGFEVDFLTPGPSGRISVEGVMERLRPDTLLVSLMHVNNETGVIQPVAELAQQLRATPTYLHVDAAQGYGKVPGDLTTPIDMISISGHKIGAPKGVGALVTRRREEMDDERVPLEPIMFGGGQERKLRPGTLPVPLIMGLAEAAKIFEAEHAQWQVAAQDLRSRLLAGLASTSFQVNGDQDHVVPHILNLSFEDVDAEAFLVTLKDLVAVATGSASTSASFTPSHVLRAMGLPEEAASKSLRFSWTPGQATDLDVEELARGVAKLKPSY

## Cc1ncc(COP(=O)(O)O)c(C=O)c1O [PLP]
  X-ray crystallography, 2.4 Å: there is a PLP cofactor which forms a Schiff base covalent bond with the amino
